Results from patent US10329307B2, “Heterocyclic compounds as inhibitors of platelet aggregation” (UNIVERSITE DE MONTREAL, priority 2015, dated 2019).

Molecular target: PAR4 (Homo sapiens (Human), UniProt Q96RI0)
Experiment: FLIPR assay in PAR4-expressing HEK293 cells (PAR4 antagonist activity)
Assay type: cell-based
Details: H-Ala-Phe(4-F)-Pro-Gly-Trp-Leu-Val-Lys-Asn-Gly-NH2-induced intracellular calcium mobilization, 11-point curves
From the text: The FLIPR assay is an exemplary in vitro assay for measuring the activity of the PAR4 antagonists of the present invention. In this assay, intracellular calcium mobilization is induced in PAR4 expressing cells by a PAR4 agonist and calcium mobilization is monitored. See, e.g., Example A.
HEK293 cells stably expressing PAR4 were generated by a standard method of transfection of human […] cDNA expression vector or by RAGE technology from Athersys Inc. (Cleveland, Ohio) and selected based on PAR4 protein expression of mRNA expression. […] These cells express endogenous PAR1 and can elicit calcium signal upon stimulation with PAR1 agonist peptide. Cells were grown in Dulbecco's Modified Eagle's Medium (DMEM) (Invitrogen, Carlsbad, Calif.), 10% FBS, 1% PSG, 3 μg/ml puromycin and 25 nM Methotrexate) at 37° C. with 5% CO2.
FLIPR-based calcium mobilization assay in HEK293 cells was used to measure PAR4 antagonism, agonism, and selectivity against PAR1. […] Counter screens for agonist activity and PAR1 antagonist activity were also performed. Briefly, PAR1/PAR4-expressing HEK293 cells were grown in DMEM (Life Technology, Grand Island, N.Y.) containing 10% heat-inactivated FBS, 1% Penicillin-Streptomycin, 10 μg/mL blasticidin, and 100 μg/mL Zeocin at 37° C. with 5% CO2. Cells were plated overnight prior to the experiment in a black 384-well Purecoat Amine clear bottom plate (Becton Dickinson Biosciences, San Jose, Calif.) at 10,000 cells/well in 30 μL growth medium and incubated in a humidified chamber at 37° C. with 5% CO2 overnight. Prior to compound addition, the cell medium was replaced with 40 μL of 1× calcium and magnesium-containing Hank's Balanced Saline Solution (HBSS) (with 20 mM HEPES) and 1:1000 diluted fluorescent calcium indicator (Codex Biosolutions, Gaithersburg, Md.). After a 30 minute incubation period at 37° C. and a further 30 minute incubation and equilibration period at room temperature, 20 μL test compound (diluted in 1×HBSS buffer) was added at various concentrations at 0.17% dimethyl sulfoxide (DMSO) final concentration. Changes in fluorescence intensity were measured using a Functional Drug Screening System (FDSS, Hamamatsu, Japan) to determine agonist activities. The cells were then incubated for 30 minutes at room temperature followed by addition of 20 μL of agonist peptide for antagonist activity measurement. […] Compound potency was derived from 11-point concentration-response curves.
As indicated above, the FLIPR assay, an in vitro assay, measures the PAR4 antagonist activity of compounds tested as described in Example A.

PAR4, sequence (Q96RI0 18-385): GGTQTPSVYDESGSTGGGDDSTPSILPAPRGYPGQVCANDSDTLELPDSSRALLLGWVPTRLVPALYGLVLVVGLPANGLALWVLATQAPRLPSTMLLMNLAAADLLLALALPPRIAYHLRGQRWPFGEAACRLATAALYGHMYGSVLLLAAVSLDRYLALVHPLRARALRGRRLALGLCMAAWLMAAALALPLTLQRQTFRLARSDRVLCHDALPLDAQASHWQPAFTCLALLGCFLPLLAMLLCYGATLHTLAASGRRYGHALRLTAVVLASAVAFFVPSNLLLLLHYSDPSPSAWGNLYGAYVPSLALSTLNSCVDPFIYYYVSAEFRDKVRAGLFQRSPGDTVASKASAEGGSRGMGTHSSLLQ

## COc1cc(OCC2CCN(c3ccc(C#N)cc3)CC2)c2cc(-c3cn4nc(OC)sc4n3)oc2c1 [Example 48]
  IC50: 1100 nM

## COc1cc(OCC2CCN(c3ccc(Cl)cc3)CC2)c2cc(-c3cn4nc(OC)sc4n3)oc2c1 [Example 49]
  IC50: 2700 nM

## COc1cc(OCC2CCN(c3ccc(F)cc3)CC2)c2cc(-c3cn4nc(OC)sc4n3)oc2c1 [Example 50]
  IC50: 4800 nM

## COc1cc(OCC2CCN(c3ccccc3)CC2)c2cc(-c3cn4nc(OC)sc4n3)oc2c1 [Example 51]
  IC50: 5000 nM

## COc1cc(OC[C@H]2CCCN(c3ccc(F)cc3)C2)c2cc(-c3cn4nc(OC)sc4n3)oc2c1 [Example 52]
  IC50: 1100 nM

## COc1cc(OC[C@@H]2CCCN(c3ccccc3)C2)c2cc(-c3cn4nc(OC)sc4n3)oc2c1 [Example 53]
  IC50: 1800 nM

## COc1cc(OC[C@H]2CCCN(c3ccccc3)C2)c2cc(-c3cn4nc(OC)sc4n3)oc2c1 [Example 54]
  IC50: 1400 nM

## COc1cc(OCC2CCCCN2c2ccc(Cl)cc2)c2cc(-c3cn4nc(OC)sc4n3)oc2c1 (stereo not shown) [Example 55]
  IC50: 720 nM

## COc1cc(OCC2CCCCN2c2ccc(Cl)cc2)c2cc(-c3cn4nc(OC)sc4n3)oc2c1 (stereo not shown) [Example 57]
  IC50: 740 nM

## COc1cc(OC[C@H]2CCCN(Cc3ccc(Cl)cc3)C2)c2cc(-c3cn4nc(OC)sc4n3)oc2c1 [Example 58]
  IC50: 1400 nM

## COc1cc(OC[C@H]2CCCN(C(=O)OCc3ccccc3)C2)c2cc(-c3cn4nc(OC)sc4n3)oc2c1 [Example 59]
  IC50: 1200 nM

## COc1cc(OCC2CCCN(c3nncs3)C2)c2cc(-c3cn4nc(OC)sc4n3)oc2c1 (stereo not shown) [Example 60]
  IC50: 2700 nM

## CCOC(=O)c1cnc(N2CCCC(COc3cc(OC)cc4oc(-c5cn6nc(OC)sc6n5)cc34)C2)s1 (stereo not shown) [Example 61]
  IC50: 1500 nM

## COc1cc(OCC2CCCN(c3ncc(Br)s3)C2)c2cc(-c3cn4nc(OC)sc4n3)oc2c1 (stereo not shown) [Example 62]
  IC50: 1900 nM

## COc1cc(OCC2CCCN(c3ccc(Cl)cn3)C2)c2cc(-c3cn4nc(OC)sc4n3)oc2c1 (stereo not shown) [Example 63]
  IC50: 860 nM

## COc1cc(OCC2CCCN(c3ccc(Cl)cn3)C2)c2cc(-c3cn4nc(OC)sc4n3)oc2c1 (stereo not shown) [Example 64]
  IC50: 820 nM

## COc1cc(OCC2CCCN(c3ncc(Br)cn3)C2)c2cc(-c3cn4nc(OC)sc4n3)oc2c1 (stereo not shown) [Example 66]
  IC50: 1400 nM

## COc1cc(OCC2CCC(=O)N(c3ccc(Cl)cc3)C2)c2cc(-c3cn4nc(OC)sc4n3)oc2c1 (stereo not shown) [Example 67]
  IC50: 3300 nM

## COc1cc(OCC2CCCN(c3ccc(NC(=O)OC(C)(C)C)cc3)C2)c2cc(-c3cn4nc(OC)sc4n3)oc2c1 (stereo not shown) [Example 68]
  IC50: 2100 nM

## COc1cc(OCC2CCCN(c3ccc(NC(=O)OC(C)(C)C)nc3)C2)c2cc(-c3cn4nc(OC)sc4n3)oc2c1 (stereo not shown) [Example 69]
  IC50: 3200 nM

## COc1ccc(COc2ccc(N3CCCC(COc4cc(OC)cc5oc(-c6cn7nc(OC)sc7n6)cc45)C3)cc2)cc1 (stereo not shown) [Example 70]
  IC50: 3500 nM

## COc1cc(OCC2CCCN(c3ccc(NC(=O)C(F)(F)F)nc3)C2)c2cc(-c3cn4nc(OC)sc4n3)oc2c1 (stereo not shown) [Example 71]
  IC50: 1300 nM

## COc1cc(OC[C@@H]2CCCN(c3ccc(F)cc3)C2)c2cc(-c3cn4nc(OC)sc4n3)oc2c1 [Example 72]
  IC50: 1400 nM

## COc1cc(OCC2CCCN(C3CCOCC3)C2)c2cc(-c3cn4nc(OC)sc4n3)oc2c1 (stereo not shown) [Example 73]
  IC50: 47000 nM

## COc1cc(OCC2CCCN(c3ccc(N)nc3)C2)c2cc(-c3cn4nc(OC)sc4n3)oc2c1 (stereo not shown) [Example 74]
  IC50: 28000 nM
